Data: US20250388605A1, “HETEROBIFUNCTIONAL COMPOUNDS AND METHODS OF TREATING DISEASE” (Halda Therapeutics OpCo, Inc., priority 2022, published 2025)

Experiments:
T47D cells = experiment: Cellular Growth Inhibition Assay for T47D Cells (CellTiter-Glo); assay type: cell-based, human; details: 72 hours
Method in brief: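 GI50 values derive from four-parameter regression of CellTiter-Glo 2.0 luminescence, using zero luminescence as baseline. Human breast cancer T47D cells (3000/well; DMEM, 10% FBS, 0.2 units/mL insulin) were exposed for 72 h to compound dilutions at 0.5% DMSO, with dosing starting 24 h after seeding.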

[1] = test system: T-Rex 293 cell line SC3 cells having increased expression of androgen receptor protein due to exposure to doxycycline; experiment: Cellular growth inhibition, T-Rex 293 SC3 cells with doxycycline (increased androgen receptor expression), CellTiter-Glo; assay type: cell-based; details: T-Rex 293 SC3 cells with 10 ng/mL doxycycline (increased androgen receptor expression), 72 hours, CellTiter-Glo 2.0
Method in brief: (§1)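 Growth inhibition is measured in an inducible AR-expressing T-Rex 293 clone, SC3, cultured with or without 10 ng/mL doxycycline in hormone-depleted medium. Test compounds are applied for 72 hours. GI50 values derive from CellTiter-Glo 2.0 signal fitted by four-parameter regression.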

[2] = test system: T-Rex 293 cell line SC3 cells lacking increased expression of androgen receptor protein; experiment: Cellular growth inhibition, T-Rex 293 SC3 cells without doxycycline (no increased androgen receptor expression), CellTiter-Glo; assay type: cell-based; details: T-Rex 293 SC3 cells not exposed to doxycycline (no increased androgen receptor expression), 72 hours
Method in brief: as §1

VCaP cells = experiment: Cellular growth inhibition assay for VCaP cells, CellTiter-Glo; assay type: cell-based, human; details: 72 hours
Method in brief: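 GI50 values come from four-parameter curve fits of luminescence data normalized to a zero baseline. Compound, in medium with 0.5% DMSO, was added one day after plating and left for 72 h before CellTiter-Glo 2.0 addition.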

SMILES | GI50 (T47D cells; Homo sapiens) [nM] | GI50 (VCaP cells; Homo sapiens) [nM] | GI50 (T47D cells) [nM] | GI50 (VCaP cells) [nM] | GI50 [1] [nM] | GI50 [2] [nM]
CCS(=O)(=O)c1ccc(Oc2ccc(CN3CC4(C3)CN(c3ncc(C(=O)N[C@H]5C(C)(C)[C@H](Oc6ccc(C#N)c(Cl)c6)C5(C)C)cn3)C4)c(F)c2)c(-c2cn(C)c(=O)c3[nH]ccc23)c1 [Compound I-271] | < 500 | < 500 |  |  | < 500 | < 500
CCS(=O)(=O)c1ccc(Oc2ccc(CN3CCC4(CCN(c5ncc(C(=O)N[C@H]6C(C)(C)[C@H](Oc7ccc(C#N)c(Cl)c7)C6(C)C)cn5)C4)C3)c(F)c2)c(-c2cn(C)c(=O)c3[nH]ccc23)c1 (stereo partly drawn) [Compound I-272] | < 500 | < 500 |  |  | < 500 | < 500
Cn1cc(-c2cc(C(C)(C)O)ccc2Oc2cccc(N3CC(CN4CCN(c5ncc(C(=O)N[C@H]6C(C)(C)[C@H](Oc7ccc(C#N)c(Cl)c7)C6(C)C)cn5)C5(CC5)C4)C3)c2F)c2cc[nH]c2c1=O [Compound I-273] |  |  | < 500 | < 500 | < 500 | 500 to 1500
Cn1cc(-c2cc(C(C)(C)O)ccc2OC2CC(OC3CCN(c4ncc(C(=O)NC5C(C)(C)C(Oc6ccc(C#N)c(Cl)c6)C5(C)C)cn4)CC3)C2)c2cc[nH]c2c1=O (stereo not drawn) [Compound I-274, N-[3-(3-chloro-4-cyano-phenoxy)-2,2,4,4-tetramethyl-cyclobutyl]-2-[4-[3-[4-(1-hydroxy-1-methyl-ethyl)-2-(6-methyl-7-oxo-1H-pyrrolo[2,3-c]pyridin-4-yl)phenoxy]cyclobutoxy]-1-piperidyl]pyrimidine-5-carboxamide] | < 500 | < 500 |  |  | < 500 | < 500
CCS(=O)(=O)c1ccc(Oc2ccc(CN3CC4(CCN(c5ncc(C(=O)N[C@H]6C(C)(C)[C@H](Oc7ccc(C#N)c(Cl)c7)C6(C)C)cn5)CC4)C3)c(F)c2)c(-c2cn(C)c(=O)c3[nH]ccc23)c1 [Compound I-275] | < 500 | < 500 |  |  | < 500 | < 500

Second part, led by results:

GI50 (T47D cells; Homo sapiens) [nM] | GI50 (VCaP cells; Homo sapiens) [nM] | GI50 (T47D cells) [nM] | GI50 (VCaP cells) [nM] | SMILES | GI50 [1] [nM] | GI50 [2] [nM]
< 500 | < 500 |  |  | CCS(=O)(=O)c1ccc(Oc2ccc(OC3CC4(C3)CN(c3ncc(C(=O)N[C@H]5C(C)(C)[C@H](Oc6ccc(C#N)c(Cl)c6)C5(C)C)cn3)C4)c(F)c2)c(-c2cn(C)c(=O)c3[nH]ccc23)c1 [Compound I-276] | < 500 | < 500
 |  | < 500 | < 500 | CCS(=O)(=O)Nc1ccc(Oc2ccc(OCC3CCN(c4ncc(C(=O)N[C@H]5C(C)(C)[C@H](Oc6ccc(Cl)c(C#N)c6)C5(C)C)cn4)CC3)cc2)c(-c2cn(C)c(=O)c3[nH]ccc23)c1 [Compound I-277] | < 500 | < 500
< 500 | < 500 |  |  | CCS(=O)(=O)c1ccc(Oc2ccc(CC3CCN(c4ncc(C(=O)N[C@H]5C(C)(C)[C@H](Oc6ccc(C#N)c(Cl)c6)C5(C)C)cn4)CC3)c(F)c2)c(-c2cn(C)c(=O)c3[nH]ccc23)c1 [Compound I-278] | < 500 | > 3000
< 500 | < 500 |  |  | Cn1cc(-c2cc(C(C)(C)O)ccc2OC2CC3(C2)CN(CCC2CCN(c4ncc(C(=O)NC5C(C)(C)C(Oc6ccc(C#N)c(Cl)c6)C5(C)C)cn4)CC2)C3)c2cc[nH]c2c1=O (stereo not drawn) [Compound I-281, N-[3-(3-chloro-4-cyano-phenoxy)-2,2,4,4-tetramethyl-cyclobutyl]-2-[4-[2-[6-[4-(1-hydroxy-1-methyl-ethyl)-2-(6-methyl-7-oxo-1H-pyrrolo[2,3-c]pyridin-4-yl)phenoxy]-2-azaspiro[3.3]heptan-2-yl]ethyl]-1-piperidyl]pyrimidine-5-carboxamide] | < 500 | 500 to 1500
